Test results reported in paper PMC12251549, “Engineering a Radiohybrid PSMA Ligand with an Albumin-Binding Moiety and Pharmacokinetic Modulation via an Albumin-Binding Competitor for Radiotheranostics” (Molecules, 2025).

Assays:
[1] = In vitro stability test in 0.1 M phosphate buffer; format: physicochemical; settings: 0.1 M PB solution containing 10% ethanol, 37 °C, 24 h, mean ± SD for three samples
Description: samples were analyzed by RP-HPLC using a Cosmosil 5C18-AR-II (4.6 × 150 mm) at a flow rate of 1 mL/min with a gradient mobile phase of 60% methanol in water with 0.1% trifluoroacetic acid (TFA) to 80% methanol in water with 0.1% TFA for 20 min.
In vitro stability test in 0.1 M PB solution containing 10% ethanol was performed. The […]
and 97.1 ± 0.9% (mean ± SD for three samples) after incubating at 37 °C for 24 h, […]

[2] = Biodistribution after intravenous co-injection of [125I]5 and [211At]6 (Table S2); format: in vivo, normal mice (ddY); settings: normal mice
Description: [^67Ga]Ga-PSMA-617 (37 kBq) and [^125I]5 (37 kBq) or [^125I]5 (37 kBq) and [^211At]6 (37 kBq) were intravenously co-administered into three or four normal mice at each timepoint (6 weeks male ddY mice, 28–30 g, Japan SLC, Inc., Hamamatsu, Japan). Mice were sacrificed at 10 min, 1 h, 4 h, and 24 h ([^67Ga]Ga-PSMA-617 and [^125I]5) or at 10 min, 1 h, 4 h, 12 h, and 24 h ([^125I]5 and [^211At]6) postinjection of the radiolabeled compounds. Tissues of interest were removed and weighed, and the radioactivity of ^67Ga and ^125I and ^125I and ^211At were determined with an auto well gamma counter (ARC-8001) and corrected for background radiation as described in the Cellular Uptake Experiments Section. To determine the amount and routes of the radioactivity excreted from the body for 24 h after the injection of radiolabeled compounds, mice were housed in metabolic cages (METABOLICA, SUGIYAMA-GEN Co., Ltd., Tokyo, Japan). Data are shown as the percentage of injected dose per gram of tissues (%ID/g) or %ID.

[3] = Biodistribution with post-administration of albumin-binding competitor IPBA; format: in vivo, normal mice (ddY); settings: normal mice, IPBA at 1 h postinjection, 10 molar equivalent of blood albumin; except in the kidney
Description: To evaluate the effects of an albumin-binding competitor (sodium salt of IPBA) in normal mice, [^125I]5 and [^211At]6 were intravenously co-administered. At 1 h postinjection of the radiolabeled compounds, IPBA (3.4 mg, 11 µmol) dissolved in saline at a 10 molar equivalent of blood albumin was administered. Mice were sacrificed at 65 min, 70 min, 2 h, 4 h, 12 h, and 24 h postinjection of [^125I]5 and [^211At]6. Tissues of interest were treated, and the radioactivity was measured in the same manner as above. Data are also shown as %ID/g or %ID.

- Radiochemical purity after incubation (in vitro stability) [1]: 97.0 ± 0.7%
- In vivo dehalogenation (radioactivity in stomach and neck) [2]: minimal deiodination or deastatination
- Biodistribution of radioactivity: Blood ([2]; i.v., 10 min after injection): 24.34 (0.27) % injected dose per gram
- Biodistribution of radioactivity: Bone ([2]; i.v., 10 min after injection): 2.42 (0.54) % injected dose per gram
- Biodistribution of radioactivity: Brain ([2]; i.v., 10 min after injection): 0.50 (0.04) % injected dose per gram
- Biodistribution of radioactivity: Heart ([2]; i.v., 10 min after injection): 4.48 (0.24) % injected dose per gram
- Biodistribution of radioactivity: Kidney ([2]; i.v., 10 min after injection): 5.27 (0.62) % injected dose per gram
- Biodistribution of radioactivity: L. Intestine ([2]; i.v., 10 min after injection): 0.84 (0.07) % injected dose per gram
- Biodistribution of radioactivity: Liver ([2]; i.v., 10 min after injection): 3.56 (0.01) % injected dose per gram
- Biodistribution of radioactivity: Lung ([2]; i.v., 10 min after injection): 13.97 (2.31) % injected dose per gram
- Biodistribution of radioactivity: Muscle ([2]; i.v., 10 min after injection): 1.01 (0.09) % injected dose per gram
- Biodistribution of radioactivity: Neck ([2]; i.v., 10 min after injection): 0.06 (0.01) % injected dose
- Biodistribution of radioactivity: Pancreas ([2]; i.v., 10 min after injection): 2.73 (0.25) % injected dose per gram
- Biodistribution of radioactivity: S. Intestine ([2]; i.v., 10 min after injection): 1.63 (0.23) % injected dose per gram
- Biodistribution of radioactivity: Spleen ([2]; i.v., 10 min after injection): 2.78 (0.58) % injected dose per gram
- Biodistribution of radioactivity: Stomach ([2]; i.v., 10 min after injection): 1.12 (0.10) % injected dose
- Biodistribution of radioactivity: Blood ([2]; i.v., 1 h after injection): 15.32 (1.28) % injected dose per gram
- Biodistribution of radioactivity: Bone ([2]; i.v., 1 h after injection): 1.67 (0.13) % injected dose per gram
- Biodistribution of radioactivity: Brain ([2]; i.v., 1 h after injection): 0.33 (0.09) % injected dose per gram
- Biodistribution of radioactivity: Heart ([2]; i.v., 1 h after injection): 4.10 (0.15) % injected dose per gram
- Biodistribution of radioactivity: Kidney ([2]; i.v., 1 h after injection): 4.66 (0.50) % injected dose per gram
- Biodistribution of radioactivity: L. Intestine ([2]; i.v., 1 h after injection): 0.89 (0.15) % injected dose per gram
- Biodistribution of radioactivity: Liver ([2]; i.v., 1 h after injection): 2.32 (0.32) % injected dose per gram
- Biodistribution of radioactivity: Lung ([2]; i.v., 1 h after injection): 8.89 (2.09) % injected dose per gram
- Biodistribution of radioactivity: Muscle ([2]; i.v., 1 h after injection): 1.24 (0.08) % injected dose per gram
- Biodistribution of radioactivity: Neck ([2]; i.v., 1 h after injection): 0.15 (0.04) % injected dose
- Biodistribution of radioactivity: Pancreas ([2]; i.v., 1 h after injection): 1.86 (0.33) % injected dose per gram
- Biodistribution of radioactivity: S. Intestine ([2]; i.v., 1 h after injection): 1.62 (0.30) % injected dose per gram
- Biodistribution of radioactivity: Spleen ([2]; i.v., 1 h after injection): 1.79 (0.34) % injected dose per gram
- Biodistribution of radioactivity: Stomach ([2]; i.v., 1 h after injection): 1.29 (0.50) % injected dose
- Biodistribution of radioactivity: Blood ([2]; i.v., 4 h after injection): 12.08 (0.95) % injected dose per gram
- Biodistribution of radioactivity: Bone ([2]; i.v., 4 h after injection): 1.83 (0.61) % injected dose per gram
- Biodistribution of radioactivity: Brain ([2]; i.v., 4 h after injection): 0.29 (0.04) % injected dose per gram
- Biodistribution of radioactivity: Heart ([2]; i.v., 4 h after injection): 3.88 (0.13) % injected dose per gram
- Biodistribution of radioactivity: Kidney ([2]; i.v., 4 h after injection): 5.20 (0.25) % injected dose per gram
- Biodistribution of radioactivity: L. Intestine ([2]; i.v., 4 h after injection): 1.26 (0.30) % injected dose per gram
- Biodistribution of radioactivity: Liver ([2]; i.v., 4 h after injection): 1.50 (0.16) % injected dose per gram
- Biodistribution of radioactivity: Lung ([2]; i.v., 4 h after injection): 7.01 (1.68) % injected dose per gram
- Biodistribution of radioactivity: Muscle ([2]; i.v., 4 h after injection): 1.20 (0.07) % injected dose per gram
- Biodistribution of radioactivity: Neck ([2]; i.v., 4 h after injection): 0.27 (0.09) % injected dose
- Biodistribution of radioactivity: Pancreas ([2]; i.v., 4 h after injection): 1.57 (0.21) % injected dose per gram
- Biodistribution of radioactivity: S. Intestine ([2]; i.v., 4 h after injection): 1.28 (0.16) % injected dose per gram
- Biodistribution of radioactivity: Spleen ([2]; i.v., 4 h after injection): 1.54 (0.22) % injected dose per gram
- Biodistribution of radioactivity: Stomach ([2]; i.v., 4 h after injection): 0.94 (0.29) % injected dose
- Biodistribution of radioactivity: Blood ([2]; i.v., 12 h after injection): 11.77 (1.29) % injected dose per gram
- Biodistribution of radioactivity: Bone ([2]; i.v., 12 h after injection): 1.88 (0.25) % injected dose per gram
- Biodistribution of radioactivity: Brain ([2]; i.v., 12 h after injection): 0.34 (0.07) % injected dose per gram
- Biodistribution of radioactivity: Heart ([2]; i.v., 12 h after injection): 3.62 (0.39) % injected dose per gram
- Biodistribution of radioactivity: Kidney ([2]; i.v., 12 h after injection): 6.62 (0.34) % injected dose per gram
- Biodistribution of radioactivity: L. Intestine ([2]; i.v., 12 h after injection): 0.87 (0.13) % injected dose per gram
- Biodistribution of radioactivity: Liver ([2]; i.v., 12 h after injection): 1.59 (0.12) % injected dose per gram
- Biodistribution of radioactivity: Lung ([2]; i.v., 12 h after injection): 8.00 (1.24) % injected dose per gram
- Biodistribution of radioactivity: Muscle ([2]; i.v., 12 h after injection): 1.32 (0.07) % injected dose per gram
- Biodistribution of radioactivity: Neck ([2]; i.v., 12 h after injection): 0.12 (0.09) % injected dose
- Biodistribution of radioactivity: Pancreas ([2]; i.v., 12 h after injection): 1.75 (0.45) % injected dose per gram
- Biodistribution of radioactivity: S. Intestine ([2]; i.v., 12 h after injection): 1.08 (0.07) % injected dose per gram
- Biodistribution of radioactivity: Spleen ([2]; i.v., 12 h after injection): 1.75 (0.21) % injected dose per gram
- Biodistribution of radioactivity: Stomach ([2]; i.v., 12 h after injection): 0.68 (0.09) % injected dose
- Biodistribution of radioactivity: Blood ([2]; i.v., 24 h after injection): 8.71 (0.20) % injected dose per gram
- Biodistribution of radioactivity: Bone ([2]; i.v., 24 h after injection): 1.26 (0.12) % injected dose per gram
- Biodistribution of radioactivity: Brain ([2]; i.v., 24 h after injection): 0.22 (0.02) % injected dose per gram
- Biodistribution of radioactivity: Heart ([2]; i.v., 24 h after injection): 2.91 (0.21) % injected dose per gram
- Biodistribution of radioactivity: Kidney ([2]; i.v., 24 h after injection): 5.06 (0.61) % injected dose per gram
- Biodistribution of radioactivity: L. Intestine ([2]; i.v., 24 h after injection): 0.63 (0.09) % injected dose per gram
- Biodistribution of radioactivity: Liver ([2]; i.v., 24 h after injection): 1.29 (0.05) % injected dose per gram
- Biodistribution of radioactivity: Lung ([2]; i.v., 24 h after injection): 5.00 (0.75) % injected dose per gram
- Biodistribution of radioactivity: Muscle ([2]; i.v., 24 h after injection): 1.08 (0.08) % injected dose per gram
- Biodistribution of radioactivity: Neck ([2]; i.v., 24 h after injection): 0.17 (0.05) % injected dose
- Biodistribution of radioactivity: Pancreas ([2]; i.v., 24 h after injection): 1.35 (0.12) % injected dose per gram
- Biodistribution of radioactivity: S. Intestine ([2]; i.v., 24 h after injection): 0.69 (0.04) % injected dose per gram
- Biodistribution of radioactivity: Spleen ([2]; i.v., 24 h after injection): 1.21 (0.27) % injected dose per gram
- Biodistribution of radioactivity: Stomach ([2]; i.v., 24 h after injection): 0.55 (0.02) % injected dose
- Biodistribution of radioactivity: Feces ([2]; i.v., excreted for 24 h after injection (column not printed safely), Table S2): 8.13 (1.09) % injected dose
- Effect of IPBA administration on radioactivity levels in tissues [3]: significantly decreased
SMILES: O=C([O-])CN1CCN(CC(=O)[O-])CCN(CC(=O)NC(CCCCNC(=O)CCCc2ccc([125I])cc2)C(=O)NCC2CCC(C(=O)NC(Cc3ccc4ccccc4c3)C(=O)NCCCCC(NC(=O)NC(CCC(=O)O)C(=O)O)C(=O)O)CC2)CCN(CC(=O)[O-])CC1.[Ga+3] (centres unmarked) [[^125I]5]
